Molecules are shown by their SMILES. Read-outs that look alike come from different tables or passages of the source.

For data set [1], the target named is T1, STAT3 (Mus musculus, UniProt P42227).
T1 construct: endogenous in cells; host or cells: K7M2
The data set is described as follows: Western blot of pSTAT3 in K7M2 cells. Type of data set: cell-based, murine. As for the experimental part: Murine K7M2 and human MG63.3 OS cells were treated with increasing concentrations of LY5 for 2 hrs or 7 hrs. Western blotting was performed for pSTAT3 and STAT3 as indicated above to confirm inhibition of STAT3 phosphorylation in the cell lines prior to initiation of the PuMA assay. In addition, a sulforhodamine B colorimetric assay was performed to assess the cytotoxicity of LY5 in K7M2 and MG63.3 cells as previously described.
MG63.3 and K7M2 cell lines were exposed to increasing concentrations of LY5 to determine the IC50 (A). Western blot analysis was performed to determine the dose and duration of LY5 exposure required to inhibit STAT3 phosphorylation (B-C). Serial imaging of fluorescently labeled MG63.3 and K7M2 cells was performed in ex vivo LY5 treated lung sections (D). Metastatic burden was quantified by evaluation of the percent tumor burden (mean normalized fluorescent area). Data are reported as the mean ± standard deviation. In MG 63.3 experiment, p < 0.0001 Kruskal-Wallis test, p < 0.05 10 μM vs control at days 7, 14, and 21, 10 μM vs 1 μM at days 7, 14, and 21, 50 μM vs control at days 7, 14, and 21, and 50 μM vs 10 μM at days 7, 14, and 21 post-test Dunn. In K7M2 experiment, p < 0.0001 Kruskal-Wallis test, p < 0.05 10 μM vs control at days 14 and 21, 10 μM vs 0.1 μM at days 14 and 21, and 10 μM vs 1 μM at days 14 and 21, post-test Dunn.
(In general: Immunoblotting shows a protein as a band on a membrane.)

Data set [2] in a line: Plasma PK profile in mice. Conditions: ICR, mouse; for AUC(0-inf): read-out: AUC inf-obs; for bioavailability: read-out: F (bioavailability). Type of data set: in vivo. As for the experimental part:
Single-dose toxicity studies in mice were performed to identify the maximum tolerated dose of LY5. Additionally, 30 ICR mice (Harlan Laboratories, Indianapolis, IN) were divided into 3 groups to be dosed with 5 mg/kg LY5 (2 mg/ml) by oral (PO), intraperitoneal (IP) or intravenous (IV) routes to establish oral bioavailability. Animals were euthanized and blood was collected at allocated time points (5, 10, 20, 30 and 60 minutes, 2, 4, 6, 8 and 24 hrs) after LY5 administration, plasma was separated by centrifugation and frozen immediately on dry ice. Samples were stored at -80° C prior to analysis.
The liquid chromatography-mass spectrometry system utilized for these analyses consisted of a Dionex Ultimate 3000 RSLCnano High Performance Liquid Chromatography system and a Thermo Finnigan Quantum Ultras EMR mass spectrometer with an electrospray ionization source. Positive ionization mode was used for both LY5 and the internal standard, hesperetin. Plasma samples were collected and analyzed by the OSU James Comprehensive Cancer Center Pharmacoanalytical Shared Resource. Pharsight Phoenix WinNonlin software using non-compartmental analysis was used to generate PK parameters including maximum plasma concentration (Cmax), amount of time that drug is present at Cmax (Tmax), and total area under the curve (AUC). AUC all and AUC last were calculated by linear trapezoidal method of concentration-time curve up to the last measured point. AUC inf-obs was calculated by log-linear extrapolation of the terminal phase beyond the last collection time. Bioavailability (F) was calculated for IP and PO administration routes. Plasma stability and liver microsomal stability of LY5 were also assessed through this shared resource.

Data set [3] concerns the target T2, STAT2 (Homo sapiens, UniProt P52630).
T2 construct: endogenous in cells; host or cells: SJSA
The data set is described as follows: Cytokine-induced STAT2 phosphorylation in SJSA cells, Western blot. Type of data set: cell-based. Conditions: induced by IFN-γ, IFN-α, or IL-4. As for the experimental part:
Cell lysis, protein isolation and immunoblotting were performed as described previously. Twenty micrograms of protein were resolved using 4–12% Bis-Tris polyacrylamide gels. Gels were transferred to PVDF membranes and subjected to blocking and incubation with primary and secondary antibodies. The primary antibodies used in this study included: phospho-STAT3 (Tyr705, Cell Signaling, Boston, MA and Abcam, Cambridge, MA), total STAT3 (Cell Signaling and Abcam), phospho-STAT1 (Cell Signaling), total STAT1 (Cell Signaling), phospho-STAT2 (Cell Signaling), phospho-STAT4 (Cell Signaling), phospho-STAT6 (Cell Signaling), and GAPDH (Cell Signaling). Protein bands were detected using Western Lightning ® Plus Enhanced Chemiluminescence substrate (Perkin Elmer, Waltham, MA) and HyBlot CL ® Autoradiography film (Denville Scientific, Holliston, MA). The cytokines used in this study included: interferon gamma (IFN-γ, Cell Signaling), interferon alpha (IFN-α, Cell Signaling), interleukin-4 (IL-4, Cell Signaling), interleukin-6 (IL-6, Cell Signaling), and oncostatin M (OSM, Cell Signaling).
Fig 1 LY5 inhibits pSTAT3 in sarcoma cell lines. (A) The tumor cell lines RH30, EW8, and RD were treated with increasing concentrations of LY5 for 30 minutes. Cell lysates were collected for Western blotting of p-STAT3, total STAT3, and GAPDH. GAPDH was used as loading control. […]

Data set [4] deals with RH10, RH36, OS-17 and OS-1. The data set is described as follows: Subcutaneous PDX models of RMS and OS, overall. Conditions: subcutaneous PDX models RH10, RH36, OS-17, OS-1. Type of data set: in vivo, mice. As for the experimental part:
C.B-17SC scid^-/- female mice (Taconic Farms, Germantown NY), were used to propagate subcutaneously implanted tumors. All mice were maintained under barrier conditions and experiments were conducted using protocols and conditions approved by the institutional animal care and use committee at University of Texas Health Science Center at San Antonio. Ten mice were used in each control or treatment group. Tumor volumes (cm^3) were determined and responses were determined using three activity measures as previously described.
To further examine the efficacy of LY5, we administered LY5 using subcutaneous PDX models of RMS (RH10 and RH36) and OS (OS-17 and OS-1). RH10, RH36 and OS-1 were derived from tissue explants, therefore no corresponding cell lines exist. Tumors were harvested 2 hrs after final drug administration. […] In addition, STAT3 phosphorylation was not observed in control or treated tumor derived from OS-17, and inhibition of STAT3 phosphorylation was not observed in OS-1 PDX models treated with 40 mg/kg twice daily.

T1 sequence (P42227 whole entry): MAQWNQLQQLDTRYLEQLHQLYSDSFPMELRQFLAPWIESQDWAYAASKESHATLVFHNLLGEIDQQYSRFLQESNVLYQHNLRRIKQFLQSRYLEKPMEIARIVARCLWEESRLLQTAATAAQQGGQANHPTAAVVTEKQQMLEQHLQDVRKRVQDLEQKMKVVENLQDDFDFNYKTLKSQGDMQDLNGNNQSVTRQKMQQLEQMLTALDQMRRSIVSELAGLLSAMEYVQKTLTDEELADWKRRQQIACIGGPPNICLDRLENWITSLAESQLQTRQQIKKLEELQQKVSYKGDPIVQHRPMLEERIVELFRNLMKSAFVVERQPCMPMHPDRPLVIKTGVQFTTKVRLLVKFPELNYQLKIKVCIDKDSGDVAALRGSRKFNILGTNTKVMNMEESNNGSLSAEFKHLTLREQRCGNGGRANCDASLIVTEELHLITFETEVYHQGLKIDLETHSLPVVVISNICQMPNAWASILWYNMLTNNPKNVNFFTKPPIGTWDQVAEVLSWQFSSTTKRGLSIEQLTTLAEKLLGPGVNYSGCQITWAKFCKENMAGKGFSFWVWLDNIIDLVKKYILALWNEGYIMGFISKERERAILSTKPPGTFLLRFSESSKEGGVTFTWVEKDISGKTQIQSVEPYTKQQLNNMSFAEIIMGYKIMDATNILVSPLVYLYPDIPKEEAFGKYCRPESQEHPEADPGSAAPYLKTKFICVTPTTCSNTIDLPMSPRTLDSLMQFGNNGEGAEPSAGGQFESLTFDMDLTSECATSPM
T2 sequence (P52630 whole entry): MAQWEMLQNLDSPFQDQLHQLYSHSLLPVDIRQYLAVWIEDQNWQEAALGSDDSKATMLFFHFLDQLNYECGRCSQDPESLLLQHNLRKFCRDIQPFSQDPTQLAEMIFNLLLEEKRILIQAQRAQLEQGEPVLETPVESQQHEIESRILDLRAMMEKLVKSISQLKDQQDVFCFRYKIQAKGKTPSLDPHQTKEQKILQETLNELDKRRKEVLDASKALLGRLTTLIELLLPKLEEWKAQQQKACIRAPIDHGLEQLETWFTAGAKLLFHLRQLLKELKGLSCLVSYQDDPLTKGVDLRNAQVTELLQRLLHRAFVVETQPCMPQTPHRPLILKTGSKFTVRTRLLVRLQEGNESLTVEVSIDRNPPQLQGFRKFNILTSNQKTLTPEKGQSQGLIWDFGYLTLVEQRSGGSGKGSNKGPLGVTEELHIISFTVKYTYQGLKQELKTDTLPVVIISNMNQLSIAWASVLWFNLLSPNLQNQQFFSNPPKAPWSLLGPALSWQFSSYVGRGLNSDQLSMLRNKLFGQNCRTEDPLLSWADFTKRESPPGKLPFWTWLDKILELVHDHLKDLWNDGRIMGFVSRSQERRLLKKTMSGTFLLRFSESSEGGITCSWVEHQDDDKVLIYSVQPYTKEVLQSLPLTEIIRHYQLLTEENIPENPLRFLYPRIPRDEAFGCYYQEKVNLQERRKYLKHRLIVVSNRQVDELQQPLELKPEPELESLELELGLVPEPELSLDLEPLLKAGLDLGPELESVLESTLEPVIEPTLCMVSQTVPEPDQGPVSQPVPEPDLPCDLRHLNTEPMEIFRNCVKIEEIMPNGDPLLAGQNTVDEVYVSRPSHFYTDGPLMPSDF

In the case of `NS(=O)(=O)c1cccc2c1C(=O)C=C(Nc1cccnc1)C2=O` [LY5, 5,8-dioxo-6-(pyridin-3-ylamino)-5,8-dihydronaphthalene-1-sulfonamide], in data set [1] (K7M2), the “concentration for complete inhibition of STAT3 in vitro” value is 10 µM. Also, in data set [1] (K7M2, 1 μM LY5), the “exposure time for effective inhibition of STAT3 phosphorylation” value worked out at 4 h. Besides, the “concentration that decreased STAT3 phosphorylation” value in data set [1] (K7M2, 2 hrs treatment) came to 1 µM. Further, in data set [2] (5 mg/kg IP), the AUC worked out at 0.717 µM·h, the Cmax amounted to 545 nM, the Tmax was 4.98 min and the AUC(0-inf) was 0.794 µM·h. The bioavailability in data set [2] (5 mg/kg IP) is 69.5%. In addition, in data set [2] (5 mg/kg IV), the AUC came out at 1.14 µM·h, the Cmax is 1660 nM, the Tmax turned out to be 4.98 min and the AUC(0-inf) was 1.14 µM·h. In data set [2] (5 mg/kg PO), the exposure (AUC) worked out at 0.784 µM·h, the Cmax was found to be 509 nM, the Tmax is 30 min and the AUC(0-inf) came to 0.898 µM·h. Moreover, the bioavailability in data set [2] (5 mg/kg PO) was found to be 78.6%. For the same compound, in data set [3], the “phosphorylation of STAT2” value is “did not inhibit”. Besides, the “PDX growth compared to control” value in data set [4] is given as “did not decrease PDX growth”.

By AUC is commonly meant concentration integrated over time. A word on the Cmax: it is the maximum level reached in the sampled fluid or tissue. The term Tmax denotes the time at which the peak concentration occurs. The bioavailability is the share of a dose that reaches the circulation, judged against a reference dose that is usually intravenous.

Values taken from article PMC5531494, “Target specificity, in vivo pharmacokinetics, and efficacy of the putative STAT3 inhibitor LY5 in osteosarcoma, Ewing's sarcoma, and rhabdomyosarcoma” (PLoS ONE, 2017).
